Assays:
NCI-H82 = assay: Cell viability MTS assay; format: cell-based, human; conditions: Homo sapiens, NCI-H82, 72 hours with compound
How it was run: (§1)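 Cells seeded 16-24 h, then exposed to serially diluted compound for 72 h (0.33% DMSO final) at 37° C, 5% CO2. Viability read by MTS/PMS reduction over 4 h, absorbance at 490 nm. IC50 is the concentration giving 50% fewer viable cells than DMSO controls, by non-linear regression.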

NCI-H446 = assay: Cell viability MTS assay; format: cell-based, human; conditions: Homo sapiens, NCI-H446, 72 hours with compound
How it was run: as §1

MDA-MB-231 cells [1] = assay: Cancer cell invasion assay with inserts (Example 85); format: cell-based; conditions: Homo sapiens, 24 hours pretreatment, 24 hours invasion, read-out: estimated IC50, invasive phenotype
Experimental: MDA-MB-231 cells were pretreated with indicated concentrations of (−)-trans-3-(5,6-dihydro-4H-pyrrolo[3,2,1-ij]quinolin-1-yl)-4(1H-indol-3-yl)pyrrolidine-2,5-dione for 24 hours. 300 μl of each cell suspension (at a concentration 0.5×10^6 cells/mL in serum free medium) was placed in individual inserts and incubated for 24 hours at 37° C. The bottom wells housing the inserts contained 500 μl of 10% FBS medium. […] Each insert was then transferred to a clean well containing cell stain solution and incubated for 10 minutes at room temperature. The bottom of the insert was destained by incubating in extraction solution and OD was measured at 560 nm. (−)-trans-3-(5,6-dihydro-4H-pyrrolo[3,2,1-ij]quinolin-1-yl)-4(1H-indol-3-yl) pyrrolidine-2,5-dione inhibited the migration across interstices in confluent cultures of MDA-MB-231 cancer cells. The data represent the mean of two independent experiments. (See FIG. 9)

MDA-MB-231 cells [2] = assay: Colony counting, surviving fraction (Example 78); format: cell-based, human; conditions: Homo sapiens, MDA-MB-231; two days incubation, colonies counted two weeks later; read-out: IC50 (surviving fraction equaled 50)
Experimental: MDA-MB-231 cells (ATCC# HTB-26), grown in DMEM plus 15% heat inactivated fetal bovine serum plus 10 mM HEPES pH 7.5, were plated in 60 mm plates (2×10^5 cells per plate). After two days candidate compounds in DMSO at various concentrations were diluted in media and added to individual plates such that the final DMSO concentration in the cell culture media was 0.1%. After two days incubation the culture was trypsinized, cells were washed with media, counted using a hemocytometer and 500 cells, including cell bodies, were plated in […] in media. Two weeks later the media was removed and the cell colonies were fixed with methanol for 10 minutes, stained with 1% crystal violet 10 minutes, washed with water and air dried. Cell colonies were visually counted when there were greater then 50 cells present per colony. Plating efficiency was defined as the average number of colonies formed divided by 500. The surviving fraction was defined as the plating efficiency of a candidate compound divided by the plating efficiency of DMSO multiplied by 100. For candidate compound titrations, the IC50 concentration was determined by fitting the equation y=AeBx to the data points and extrapolating the concentration where surviving fraction equaled 50. […]

c-Met = c-Met (Homo sapiens, UniProt P08581); assay: c-Met phosphorylation, Western blot (Example 80); format: cell-based; design: whole cell extracts were prepared; endogenous in cells; host or cells: MDA-MB-231; conditions: MDA-MB-231 cells, serum-deprived 16 hours, 100 ng/ml HGF/SF 10 minutes
Chain of c-Met (P08581 25-1390): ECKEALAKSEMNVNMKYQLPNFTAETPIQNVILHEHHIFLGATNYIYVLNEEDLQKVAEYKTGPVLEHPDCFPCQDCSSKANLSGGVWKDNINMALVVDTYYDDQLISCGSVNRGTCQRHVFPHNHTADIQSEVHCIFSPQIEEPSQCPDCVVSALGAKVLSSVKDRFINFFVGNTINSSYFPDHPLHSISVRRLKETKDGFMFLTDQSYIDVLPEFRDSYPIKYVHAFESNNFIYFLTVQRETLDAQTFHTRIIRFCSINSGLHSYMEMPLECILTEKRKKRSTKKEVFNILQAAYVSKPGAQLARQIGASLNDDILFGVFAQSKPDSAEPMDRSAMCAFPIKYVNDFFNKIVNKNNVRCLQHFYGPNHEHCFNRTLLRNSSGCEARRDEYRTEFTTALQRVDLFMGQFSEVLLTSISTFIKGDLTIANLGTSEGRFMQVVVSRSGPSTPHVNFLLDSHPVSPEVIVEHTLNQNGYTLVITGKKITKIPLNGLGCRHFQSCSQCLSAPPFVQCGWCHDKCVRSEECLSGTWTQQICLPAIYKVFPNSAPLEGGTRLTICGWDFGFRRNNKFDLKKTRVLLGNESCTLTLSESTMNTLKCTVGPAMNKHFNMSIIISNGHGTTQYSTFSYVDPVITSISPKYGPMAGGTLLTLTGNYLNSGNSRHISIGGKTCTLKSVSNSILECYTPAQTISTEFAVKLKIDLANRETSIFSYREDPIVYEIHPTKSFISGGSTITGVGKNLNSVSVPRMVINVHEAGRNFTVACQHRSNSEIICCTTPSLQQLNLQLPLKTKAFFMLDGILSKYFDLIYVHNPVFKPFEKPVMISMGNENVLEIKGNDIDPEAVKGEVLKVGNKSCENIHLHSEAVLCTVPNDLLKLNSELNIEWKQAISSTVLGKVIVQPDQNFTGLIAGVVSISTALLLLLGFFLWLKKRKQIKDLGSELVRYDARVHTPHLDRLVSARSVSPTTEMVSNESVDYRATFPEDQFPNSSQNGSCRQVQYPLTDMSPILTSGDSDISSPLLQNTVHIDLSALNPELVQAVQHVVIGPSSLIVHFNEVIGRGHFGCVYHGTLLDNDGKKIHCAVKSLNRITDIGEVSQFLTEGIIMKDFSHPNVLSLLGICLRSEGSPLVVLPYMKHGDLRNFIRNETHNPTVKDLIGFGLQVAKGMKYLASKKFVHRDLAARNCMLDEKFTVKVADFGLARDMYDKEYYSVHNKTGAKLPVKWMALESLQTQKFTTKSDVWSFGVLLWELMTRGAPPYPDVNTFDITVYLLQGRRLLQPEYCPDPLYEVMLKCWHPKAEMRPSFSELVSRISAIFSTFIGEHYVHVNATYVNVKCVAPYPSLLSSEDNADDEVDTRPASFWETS
Experimental: MDA-MB-231 cells were serum-deprived overnight (16 hours) in the absence or in the presence of the indicated concentrations of the separate enantiomers (+)-trans-3-(5,6-dihydro-4H-pyrrolo[3,2,1-ij]quinolin-1-yl)-4(1H-indol-3-yl)pyrrolidine-2,5-dione and (−)-trans-3-(5,6-dihydro-4H-pyrrolo[3,2,1-ij]quinolin-1-yl)-4(1H-indol-3-yl)pyrrolidine-2,5-dione. Cells were treated with 100 ng/ml recombinant human Hepatocyte Growth Factor/Scatter Factor (HGF/SF) (R&D Systems #294-HG) for 10 minutes. Whole cell extracts were prepared in lysis buffer (20 mM Trwas-HC1 pH 7.5, 150 mM NaCl, 1 mM Na2EDTA, 1 mM EGTA, 1% Triton X-100, 2.5 mM sodium pyrophosphate, 1 mM beta-glycerophosphate, 1 mM Na3VO4, 1 μg/ml leupeptin, 1 mM phenylmethylsulfonyl fluoride) and sonicated. Protein concentration was measured by Bradford assay using the BioRad reagent (BioRad, Hercules, Calif.), according to the manufacturer's directions. Samples (50 μg of protein) were resolved by 8% SDS-PAGE under reducing conditions, and transferred onto a PVDF membrane (BioRad). […] Proteins were detected by incubation overnight at 4° C. in TBS-T with 5% milk and either a polyclonal antibody against phosphorylated c-Met (#3121), phosphorylated Erk1/2 (#9101), total Erk1/2 protein (#9102) (Cell Signaling Technology); or a monoclonal antibody against […] (A-5441) (Sigma), which was used as a control for total protein loading. […]

- IC50 (NCI-H82): 828 nM
- IC50 (NCI-H446): 581 nM
- IC50 (MDA-MB-231 cells [1]): ~500 nM
- concentration that inhibits basal and HGF-induced autophosphorylation of c-Met (c-Met): at least 500 nM
SMILES: O=C1NC(=O)C(c2cn3c4c(cccc24)CCC3)C1c1c[nH]c2ccccc12 (single isomer, unassigned; (-))
- IC50 (MDA-MB-231 cells [2]): 620 nM
